Read-outs that look alike come from different tables or passages of the source.
Tests used:
human SF-1 = biological target: T1, human SF-1 (Homo sapiens, UniProt Q13285); experiment: SF-1 Luc assay (Gal4DBD-SF-1LBD luciferase reporter in transfected CHO-K1 cells); type: cell-based; conditions: for EC50: CHO-K1 cells transfected with GAL4-SF-1 plasmid, 40 hours incubation, read-out: hSF-1-Luc: EC50
T1 construct: expressed in transfected cells; host or cells: CHO-K1 cells (Chinese hamster ovary), transient cotransfection with pG5luc
Excerpt: BamHI and XbaI sites introduced by the primers […] (forward) and […] (reverse) were used for subcloning the amplicon into pFA-CMV.
Cells were routinely cultured by splitting them from 1:10 to 1:20. […] Four hours after transfection, cells were trypsinized and suspended to a concentration of 1.6×10^5 cells/ml in supplemented Ham's F-12 media.
Assays: The collected cells were resuspended in the culture medium and plated into a 384 well-white plate (Corning Life Sciences, Acton, MA) at 8,000 cells/50 μL/well.
Measurement of SF-1 Transcriptional Activity: SF-1 transcriptional activity was detected as the intracellular Luc activity using SteadyLite Plus HTS Reporter Gene Assay System. After the measurement of the cell viability, the culture media in the 384 well-plate were completely removed. Then, 30 μL of the Luc substrate solution was added into each well and incubated for 10 min at room temperature. After the incubation, luminescence of each well was measured by a microplate reader.
Calculation of the SF-1 Transcriptional Activity (% of Control): The % of control for the transcriptional activity was calculated according to the following equation: % of control=A/B×100 Equation • A: luminescence count in the test article-treated CHO cells transfected with GAL4-SF-1 plasmid • B: mean luminescence count in the vehicle-treated CHO cells transfected with GAL4-SF-1 plasmid

[1] = test system: rat Leydig tumor cell line R2C; experiment: R2C proliferation assay for SF-1 antagonists (EdU incorporation); type: cell-based; conditions: for EC50: read-out: R2C: EC50; for inhibition at 8 µM: Leydig
Protocol: SF-1 regulates progenitor cell formation and survival in adult Leydig cells. Anti-proliferative effects of SF-1 antagonists using a SF-1+ rat Leydig tumor cell line, R2C, was investigated. Cell proliferation was measured by detecting DNA incorporation of EdU, a nucleoside analogue that can be fluorescently tagged after cell fixation.
Proliferation of the rat Leydig tumor cell line R2C (ATCC® CCL-97™) was assessed using 5-ethynyl-2′-deoxyuridine (EdU), a nucleoside analogue incorporated during DNA synthesis that can be fluorescently tagged after cell fixation. Cycloheximide, a protein synthesis inhibitor, was used as a positive control for the assay.
R2C cells are maintained according to a protocol provided by the American Type Culture Collection (ATCC). At the time of assay, R2C cells were diluted to 1.0 million cells/mL with culture medium (F12 medium supplemented with 2% FBS and 1% Penicillin-Streptomycin) and 50 uL of cell suspension seeded into each well of 384-well clear bottom plates. The assay plates were incubated in a humidified, 37° C., 6% CO2 atmosphere for 24 hours. Serially diluted SF-1 antagonists, cycloheximide or vehicle (DMSO) were then applied to the R2C cells and incubated in a humidified, 37° C., 6% CO2 atmosphere for two days. EdU (Invitrogen), at a final concentration of 5 μM, was added to the cells and incubated for an additional 16 hours, after which cells were fixed with 10% formalin.
Cells were then washed and permeabilized in 0.5% TritonX-100/PBS solution at RT for 1 hour. EdU incorporation was detected by labeling EdU with 6-FAM azide (Lumiprobe) using a copper (I)-catalyzed Click reaction between an azide and alkyne. The reaction mixture consists of 5 mM ascorbic acid, 1 mM CuSO4, 1 μM 6-FAM azide dissolved in PBS buffer. […] For data normalization, the average fluorescence of DMSO wells was defined as 100%, and average fluorescence of 10 μM cycloheximide wells was defined as 0%. Curve fitting and EC50 determination were performed using the variable slope sigmoidal dose-response analysis.
R2C cells were routinely cultured in R2C culture medium. To assay SF-1 antagonist inhibitory activity, R2C cells were resuspended in the R2C plating medium and plated into a 384 well-clear bottom black plate at 20,000 cells/50 μL/well. […] 10 μL EdU plating solution were then dispensed into each well of assay plate incubated at 37° C., 6% CO2 for two days.
R2C proliferation is measured by detecting the fluorescent labelled EdU. The R2C assay plates were fixed by dispense 60 μL of 10% formalin into each well, and the plates were incubated at room temperature for 1 hour on an orbital shaker. The plates were washed with 80 μL of PBS three times, and cells were permeabilized by treating with 100 μL of PBS-0.5% TritonX-100 at RT for 1 hour on an orbital shaker. The plates were washed with 80 μL of PBS three times, and after the last wash, 25 μL of PBS was dispensed into each well. 25 μL of 2× mounting mix solution was then added into each well of fixed cells, and the plates were incubated at RT for 30 min in the dark on an orbital shaker. The cells were washed with 80 μL of PBS, three times, and after the last wash, 25 μL of PBS was dispensed into each well. […] The cells were washed with 80 μL of PBS, three times, and after the last wash, 50 μL of PBS was dispensed into each well. Assay plates were sealed with aluminum foil, and fluorescence was measured using a Envision microplate reader.
The % of control for the proliferation activity was calculated according to the following equation: % of control=100×(A−C)/(B−C) Equation • A: fluorescence count in the test article-treated R2C cells • B: mean fluorescence count in the vehicle-treated R2C cells • C: mean fluorescence count in the 10 μM cycloheximide-treated R2C cells

T1 sequence (Q13285 198-461 limits assumed): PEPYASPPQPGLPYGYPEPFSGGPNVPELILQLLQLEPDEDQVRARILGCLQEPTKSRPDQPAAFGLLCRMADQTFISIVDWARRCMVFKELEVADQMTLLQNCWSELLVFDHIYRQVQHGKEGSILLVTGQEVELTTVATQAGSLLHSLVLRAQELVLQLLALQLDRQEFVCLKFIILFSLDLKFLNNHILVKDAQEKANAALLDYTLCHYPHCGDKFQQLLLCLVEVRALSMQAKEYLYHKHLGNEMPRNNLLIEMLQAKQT

Row | EC50 (human SF-1) | EC50 ([1]; R2C cells, EdU incorporation) | inhibition at 8 µM (human SF-1; CHO-K1, read-out: hSF-1-Luc: inhibition at 8 uM) | Compound | EC50 ([1]; R2C) | inhibition at 8 µM [1]
1 | < 200 nM | 200 to 1000 nM | – | Cn1nc(Nc2ccc(C(F)(F)F)nc2)c2ncn(CC(=O)N[C@H]3CC[C@H](OC(F)F)CC3)c(=O)c21 [Compound 65, N-((1r,4r)-4-(difluoromethoxy)cyclohexyl)-2-(1-methyl-7-oxo-3-((6-(trifluoromethyl)pyridin-3-yl)amino)-1,7-dihydro-6H-pyrazolo[4,3-d]pyrimidin-6-yl)acetamide] | – | –
2 | 200 to 1000 nM | 1000 to 10000 nM | – | Cn1nc(Nc2ccc(C(F)(F)F)cc2)c2ncn(CC(=O)NC(C)(C)C3CCOCC3)c(=O)c21 [Compound 15, 2-(1-methyl-7-oxo-3-((4-(trifluoromethyl)phenyl)amino)-1,7-dihydro-6H-pyrazolo[4,3-d]pyrimidin-6-yl)-N-(2-(tetrahydro-2H-pyran-4-yl)propan-2-yl)acetamide] | – | –
3 | < 200 nM | 1000 to 10000 nM | – | COc1ccc(NC(=O)Cn2cnc3c(Nc4ccc(OC(C)C)cc4)nn(C)c3c2=O)cc1F [Compound 70, N-(3-fluoro-4-methoxyphenyl)-2-(3-((4-isopropoxyphenyl)amino)-1-methyl-7-oxo-1,7-dihydro-6H-pyrazolo[4,3-d]pyrimidin-6-yl)acetamide] | – | –
4 | < 200 nM | < 200 nM | – | C[C@H](CO)Oc1ccc(NC(=O)Cn2cnc3c(Nc4ccc(C(F)(F)F)cc4)nn(C)c3c2=O)cc1 (single isomer, unassigned) [Compound 25] | – | –
5 | 200 to 1000 nM | 1000 to 10000 nM | – | Cn1nc(Nc2ccc(C(F)(F)F)nc2)c2ncn(CC(=O)N[C@H]3CC[C@H](OCC(C)(C)O)CC3)c(=O)c21 [Compound 68, N-((1r,4r)-4-(2-hydroxy-2-methylpropoxy)cyclohexyl)-2-(1-methyl-7-oxo-3-((6-(trifluoromethyl)pyridin-3-yl)amino)-1,7-dihydro-6H-pyrazolo[4,3-d]pyrimidin-6-yl)acetamide] | – | –
6 | < 200 nM | 200 to 1000 nM | – | Cn1nc(Nc2ccc(C(F)(F)F)cc2)c2ncn(CC(=O)NC3CCOCC3)c(=O)c21 [Compound 13, 2-(1-methyl-7-oxo-3-((4-(trifluoromethyl)phenyl)amino)-1,7-dihydro-6H-pyrazolo[4,3-d]pyrimidin-6-yl)-N-(tetrahydro-2H-pyran-4-yl)acetamide] | – | –
7 | < 200 nM | < 200 nM | – | Cn1nc(Nc2ccc(C(F)(F)F)cc2)c2ncn(CC(=O)Nc3ccc(C(C)(C)S(C)(=O)=O)cc3)c(=O)c21 [Compound 12, 2-(1-methyl-7-oxo-3-((4-(trifluoromethyl)phenyl)amino)-1,7-dihydro-6H-pyrazolo[4,3-d]pyrimidin-6-yl)-N-(4-(2-(methylsulfonyl)propan-2-yl)phenyl)acetamide] | – | –
8 | < 200 nM | < 200 nM | – | Cn1nc(Nc2ccc(C(F)(F)F)cc2)c2ncn(CC(=O)N[C@H]3CC[C@H](C(C)(C)CO)CC3)c(=O)c21 [Compound 27, N-((trans)-4-(1-hydroxy-2-methylpropan-2-yl)cyclohexyl)-2-(1-methyl-7-oxo-3-((4-(trifluoromethyl)phenyl)amino)-1,7-dihydro-6H-pyrazolo[4,3-d]pyrimidin-6-yl)acetamide] | – | –
9 | – | – | 75% | COc1ccc(NC(=O)Cn2cnc3c(Nc4ccc(C(F)(F)F)cn4)n[nH]c3c2=O)cc1F [Compound 63, N-(3-fluoro-4-methoxyphenyl)-2-(7-oxo-3-((5-(trifluoromethyl)pyridin-2-yl)amino)-1,7-dihydro-6H-pyrazolo[4,3-d]pyrimidin-6-yl)acetamide] | – | 19%
10 | < 200 nM | < 200 nM | – | C[C@@H](CO)Oc1ccc(NC(=O)Cn2cnc3c(Nc4ccc(C(F)(F)F)cc4)nn(C)c3c2=O)cc1 (single isomer, unassigned) [Compound 26] | – | –
11 | 1000 to 10000 nM | – | – | Cn1nc(Nc2ccc(C(F)(F)F)cn2)c2ncn(CC(=O)N[C@H]3CC[C@H](OCC(C)(C)O)CC3)c(=O)c21 [Compound 52, N-((1r,4r)-4-(2-hydroxy-2-methylpropoxy)cyclohexyl)-2-(1-methyl-7-oxo-3-((5-(trifluoromethyl)pyridin-2-yl)amino)-1,7-dihydro-6H-pyrazolo[4,3-d]pyrimidin-6-yl)acetamide] | – | 72%
12 | < 200 nM | 200 to 1000 nM | – | Cn1nc(Nc2ccc(C(F)(F)F)cc2)c2ncn(CC(=O)NCC3CCOCC3)c(=O)c21 [Compound 14, 2-(1-methyl-7-oxo-3-((4-(trifluoromethyl)phenyl)amino)-1,7-dihydro-6H-pyrazolo[4,3-d]pyrimidin-6-yl)-N-((tetrahydro-2H-pyran-4-yl)methyl)acetamide] | – | –
13 | < 200 nM | < 200 nM | – | Cn1nc(Nc2ccc(C(F)(F)F)cc2)c2ncn(CC(=O)Nc3ccc(OCC(C)(C)O)cc3)c(=O)c21 [Compound 20, N-(4-(2-hydroxy-2-methylpropoxy)phenyl)-2-(1-methyl-7-oxo-3-((4-(trifluoromethyl)phenyl)amino)-1,7-dihydro-6H-pyrazolo[4,3-d]pyrimidin-6-yl)acetamide] | – | –

Row | Compound | EC50 (human SF-1) | EC50 ([1]; R2C cells, EdU incorporation) | inhibition at 8 µM (human SF-1; CHO-K1, read-out: hSF-1-Luc: inhibition at 8 uM) | EC50 ([1]; R2C) | inhibition at 8 µM [1]
14 | CCn1nc(Nc2ccc(C(F)(F)F)cc2)c2ncn(CC(=O)Nc3ccc(OC)c(F)c3)c(=O)c21 [Compound 77, 2-(1-ethyl-7-oxo-3-((4-(trifluoromethyl)phenyl)amino)-1,7-dihydro-6H-pyrazolo[4,3-d]pyrimidin-6-yl)-N-(3-fluoro-4-methoxyphenyl)acetamide] | < 200 nM | – | – | < 200 nM | –
15 | Cn1nc(Nc2ccc(C(F)(F)F)cc2)c2ncn(CC(=O)N[C@H]3CCC[C@@H](OC(F)F)C3)c(=O)c21 (single isomer, unassigned) [Compound 48] | < 200 nM | – | – | < 200 nM | –
16 | Cn1nc(Nc2ccc(C(F)(F)F)cc2)c2ncn(CC(=O)N[C@@H]3CCC[C@@H](OC(F)F)C3)c(=O)c21 (single isomer, unassigned) [Compound 44] | < 200 nM | – | – | < 200 nM | –
17 | Cn1nc(Nc2ccc(C(F)(F)F)cc2)c2ncn(CC(=O)N[C@H]3CCC[C@H](OC(F)F)C3)c(=O)c21 (single isomer, unassigned) [Compound 43] | < 200 nM | – | – | < 200 nM | –
18 | COc1ccc(NC(=O)Cn2cnc3c(Nc4ccc(Cl)cc4)nn(C)c3c2=O)cc1F [Compound 71, 2-(3-((4-chlorophenyl)amino)-1-methyl-7-oxo-1,7-dihydro-6H-pyrazolo[4,3-d]pyrimidin-6-yl)-N-(3-fluoro-4-methoxyphenyl)acetamide] | < 200 nM | – | – | < 200 nM | –
19 | Cn1nc(Nc2ccc(C(F)(F)F)cc2)c2ncn(CC(=O)N[C@H]3CC[C@@H](OC(F)F)CC3)c(=O)c21 [Compound 36, N-((1s,4s)-4-(difluoromethoxy)cyclohexyl)-2-(1-methyl-7-oxo-3-((4-(trifluoromethyl)phenyl)amino)-1,7-dihydro-6H-pyrazolo[4,3-d]pyrimidin-6-yl)acetamide] | < 200 nM | – | – | 200 to 1000 nM | –
